Like-named read-outs stand apart in the source and are kept apart here.
What was measured:
[1] = Body weight gain during staircase testing after transient MCAo; type: in vivo, rats; settings: compared to base line
Method: (§1) Animals were allowed to recover from the surgery for five days. The mild food deprivation was re-employed during the days following the ischemic insult. They were tested in the staircase box using the above method for 9-12 days. Animals were weighed twice a week during this period.
Animals were kept under mild food deprivation during the staircase testing (except during weekends). Under these conditions, the following results were observed: • Sham and PRS-211,095 10 mg/kg treated rats gained the maximal body weight (15 and 17% respectively compared to base line). […] These differences were not statistically different.

[2] = tested on: PGE2; assay: Inhibition of prostaglandin synthesis (PGE2) in LPS-stimulated macrophage cell cultures; type: cell-based; settings: LPS-stimulated macrophages
Source text: (§2) Evaluation of the therapeutic effects of the novel PRS-211 compounds has now been carried out in a series of experimental systems to support the utility of these drugs as neuroprotectants, anti-inflammatory agents and anti-oxidative agents. These effects have been evaluated both in vitro and in vivo, and have been corroborated utilizing the following systems: • (a) Binding to the NMDA receptor linked channel: Non competitive antagonists of NMDA, the primary example of which is the compound MK-801, bind to a site within the NMDA receptor channel thus preventing the activation of the receptor-channel complex and the consequent neurotoxicity. The ability of various compounds to compete with the binding of tritium labeled MK-801 to brain membranes is considered a measure of their potency as NMDA non-competitive antagonists. • (b) Inhibition of prostaglandin production: The inhibitory effect of the new derivatives of Dexanabinol on prostaglandin synthesis is evaluated in macrophage cell cultures following LPS exposure to induce the inflammatory response. These assays are an indication of the anti-inflammatory activity of the individual analogs. • (c) Inhibition of Tumor Necrosis Factor Alpha: Specific aspects of the inflammatory response cascade are mediated by the cytokine TNFα. Inhibition of TNFα production and/or inhibition of TNFα release by the new analogs are assayed in macrophage cell cultures activated with LPS. This serves as another indication of the general anti-inflammatory potential of the novel compounds. • (d) Nitric Oxide Assay: As one aspect of the anti-oxidative potential of the novel analogs they were tested for their ability to inhibit the enzyme nitric oxide synthase (NOS). This assay can also serve as another indication of the anti-inflammatory cascade, as well as the anti-oxidative mechanisms. • (e) Ear Edema model: The anti-inflammatory activity of the new analogs is screened using an ear edema model in mice. This test system utilizes Croton oil or Arachidonic acid as inflammation inducers. The ability of the test compounds to prevent or diminish the inflammatory response to these stimulants is indicative of their systemic anti-inflammatory capability. • (f) Improved clinical outcome after closed head injury in rats: Severe head injury is associated with high mortality and severe neurological impairment. Animals subjected to head trauma in a controlled fashion serve as models in which to test drugs of therapeutic potential. Test compounds can be evaluated both for improved clinical outcome and for reduction of edema induced by closed head injury. The ability of compounds to reduce the severity of neurological symptoms and to reduce brain edema is considered a measure of their potency in reducing brain damage. • (g) Transient Middle cerebral artery occlusion (MCAo): The middle cerebral artery is the cerebral blood vessel most susceptible to stroke in humans. In animals, coagulation, permanent ligation or permanent placement of an occluding thread in the artery produces a permanent focal stroke affecting the MCA territory. Transient ligation or occlusion results in transient focal stroke. Both transient and permanent focal strokes result in varying degrees of edema and infarction in the affected brain regions. The ability of compounds to reduce the volumes of edema and infarction is considered a measure of their potential as anti-stroke treatment. • (h) Optic Nerve Crush: Application of mechanical pressure to the rat optical nerve results in crush injury of the axons, which is accompanied by immediate changes in oxidative metabolism and delayed axonal death and blindness. […]

[3] = tested on: NMDA receptor; assay: Radioligand binding: displacement of [3H]MK-801 from rat forebrain membranes; settings: for NMDA receptor binding / affinity: MK-801 binding to membranes
Source text: as §2

[4] = tested on: TNFα; assay: Inhibition of TNFα in LPS-stimulated macrophage cell cultures (ELISA); type: cell-based; settings: LPS-stimulated macrophages
Source text: as §2

[5] = tested on: Nitric Oxide Synthase (NOS); assay: Inhibition of nitric oxide synthase (nitrite fluorimetric assay, LPS-stimulated macrophage cultures); type: cell-based; settings: LPS-stimulated macrophages
Source text: as §2

[6] = tested on: ear edema model in mice; assay: Ear edema model; type: in vivo; settings: Mus musculus, Croton oil (CO) as inducer, IP
Source text: as §2

[7] = tested on: transient MCAo in rats; assay: Transient MCAo evaluated by the staircase test; type: in vivo
Method: The materials for this procedure are identical to those from Physiological Example 5, except for the different concentrations of PRS-211,095. The procedural differences are as follows: • Male Sprague Dawley rats, 230-270 gr (Harlan, Israel) were used. The following compounds and their respective concentrations were tested: • Dexanabinol and analogs PRS-211,095 and PRS-211,220 in PEG ethanol cosolvent 50 mg/ml. Dexanabinol, the analogs and their vehicle were diluted in Intralipid® 20% (Pharmacia) prior to drug administration.
The procedure is essentially as described in Montoya et al. (Montoya, Campbell-Hope, Pemberton and Dunnet, J. Neurosci. Meth. 36:219-228, 1991) Animals were kept under mild food deprivation for 3-5 days, receiving 15-gr. food once a day (between 16:00 and 17:00) and free access to water. Animals were trained prior to the test for 3-5 days according to the protocol of Sharkey et. al. (Sharkey, Crawford, Butcher and Martson, Stroke 27:2282-2286, 1996).
In brief, the staircase box contains two rows of seven stairs in each. Two 45 mg food pellets were placed on each step. Animals were placed in the box for 15 minutes sessions. At the end of the session the number of eaten (grasped) and displaced pellets was counted and recorded. Animals were tested twice a day, 4 hours apart. The first session was performed between 8-9 AM and second between 12-13 PM. The animals were trained until they grasped (ate) at least 8 pellets from each set of stairs for two consecutive sessions. Up to one week after the end of the successful training session the animals underwent transient MCAo. Transient MCAo was performed in essentially the same manner as described in Physiological example 5 with the following modification at step i: • Two minutes prior to thread removal rats were re-anesthetized and administered IV with Dexanabinol 5mg/kg, analogs PRS-211,220 or PRS-211,095 at 0.5, 2.5, 5 or 10 mg/kg or vehicle 5 ml/kg. One additional group was sham-treated.
as §1
At the end of the evaluation period, animals were euthanized with pentobarbitone 100 mg/kg IP. The animals were perfused through the heart with heparinized 4% formaldehyde solution in PBS (pH 7.4). Brains were then removed, and kept in the same solution for at least 24h. Then the brains - from the rostral side of the cortex to the cerebellum- were sunk in 30% sucrose in PBS, cryosectioned (20 µm), dried and stained with thionin for histological evaluation of the brain infarct volume. Eight sections at the levels of: 3.3;+2.8;+1.8; +0.8; -0.4;-1.4; -2.2; and -3.4 from Bregma were measured (Swanson, Rat Brain Atlas, 1992). Sections were captured by a CCD camera (V-tech MP-470) and image analyzed (Scion image 1.62A). Infarct size was determined from the series of the 8 sections by either calculation of the infarct volume (mm3) by summing the series of mean lesion areas of two adjacent sections multiplied by the distance between them or calculation of the mean infarct size as percentage of the contralateral hemisphere size; calculation of the mean of the surviving ipsilateral side as percentage of the contralateral hemisphere size; calculation of the mean ipsilateral side ventricle as percentage of the contralateral hemisphere ventricle.
• a. The infarct size was compared using ANOVA (analysis of variance) followed by Duncan's post hoc test. • b. […]

[8] = tested on: transient middle cerebral artery occlusion in rats; assay: Transient middle cerebral artery occlusion (MCAo), infarct size evaluation; type: in vivo; settings: IV, one week after the ischemic insult
Source text: Experimental design. The design was a randomized one, performed in a masked fashion as to whether drug or vehicle was being given, and an attempt was made to generate approximately equal numbers of drug- and vehicle-treated animals.
• a. Male rats (8 /treatment group) 320-380 gr. (Harlan Israel). • b. Halothane (Rhone Poulenc France) • c. Pentobarbitone (Pental Veterinary, CTS Israel). • d. Poly - L - Lysine (Sigma, USA). • e. Silk suture material 3-0 and 4-0. • f. Nylon (Polyamid) suture material 3-0. Four cm pieces were cut and positioned in a solution of 1% Poly - L - Lysine for 1 minute and dried in an oven (60 ° C) for 60 minutes. The tip of each piece was rounded under a flame. • g. Saline (Teva Medical). • h. Blank cremophor ethanol cosolvent (Pharmos). • i. Dexanabinol in cremophor ethanol cosolvent 50 mg/ml. (Both Dexanabinol and its vehicle were diluted in saline prior to drug administration. • j. Analogs PRS-211,092, PRS-211,095, PRS-211,128 PRS-211,132 and PRS-211,220 in cremophor ethanol cosolvent, 50 mg/ml. • k. The analogs were diluted in saline prior to drug administration.
• a. Surgical details of the MCAo method used for testing dexanabinol analogs, are presented in Belayev, et al., (Belayev, Busto, Weizhao, and Ginsberg, Stroke 26:2313-2319, 1995) which is incorporated herein in its entirety by reference. • b. Two hours after the start of MCAO, the animals were reanesthetized with halothane, the neck wound was re-opened and the nylon thread pulled out of the Internal carotid artery (ICA). The skin wound was then closed with 3-0 silk suture material and the animals allowed to recover from the anesthesia. • c. Three sets of animals were tested. In the first test immediately (2+0 hours) before thread removal the animals were injected IV with either analogs PRS-211,095, PRS-211,128, PRS-211,132, or Dexanabinol (PRS-211,007) each at a dosage of 5 mg/kg. One group of animals was treated with 5ml/kg vehicle alone. In another group, the animals subjected to "sham" operation, the suture was passed into the ICA, as described above, but immediately withdrawn. In the second set dexanabinol, PRS-211,092, PRS-211,095 and PRS-211,220 were used, at 2+0 hours. In the third set dexanabinol, PRS-211,092, PRS-211,095 and PRS-211,220 were administered 1 hour after thread removal (2+1 hours). Laser Doppler Flow (LDF) determined the success of MCAo - a drop of more then 50% in cerebral blood flow was considered as a sign of successful MCAo. Although LDF was a helpful corroborative sign, clinical outcome remained the final inclusion/exclusion criterion, since, with the exception of the PRS-211,220 staircase study, LDF was introduced only after initiation of the study.
A detailed investigation of neurological performance was carried out on the first, third and the 7th day after the MCAo. Two parameters were examined: posture and the flexion reflex (based on Nokon and Chuang, NeuroReport 9, 1998: 2081-2084). Animals were scored according to their performance:
One week after the ischemic insult, animals were euthanized with pentobarbitone 100 mg/kg IP. The animals were perfused through the heart with heparinized 4% formaldehyde solution in PBS (pH 7.4). Brains were then removed, and kept in the same solution before preparation for histological evaluation of the brain infarct volume.

[9] = tested on: rat model of myocardial ischemia; assay: Rat model of myocardial ischemia and reperfusion; type: in vivo, rats; settings: given 15 minutes before occlusion; 45 minutes occlusion, 4 hours reperfusion; versus vehicle
[10] = displacement of [3H]MK-801, rat forebrain membranes, read-out: NMDA BINDING IC50

What does the source list for `CCCCCCC(C)(C)c1cc(O)c2c(c1)OC(C)(C)[C@H]1CC=C(Cn3cccn3)C[C@H]21` [211,220-000, (+)-(3S,4S)-6,6-Dimethyl-(1,1-dimethylheptyl)-1-hydroxy-9-(pyrazolomethyl)-6a,7,10,10a-tetrahydro-6H-dibenzo[b,d]pyran]?
body weight gain ([1]; 0.1 mg/kg): 3%; body weight gain ([1]; 0.5 mg/kg): 10%; body weight gain ([1]; 2.5 mg/kg): 5%; body weight gain ([1]; 5 mg/kg): 4%; inhibition at 10 µM [2]: 47%; NMDA receptor binding / affinity [3]: relatively high affinity; IC50 ([3]; [3H]MK-801 binding, text to Figure 2, read-out: mean IC50): 350 nM; IC50 [3, 10]: 350 nM; inhibition at 10 µM [4]: 11%; inhibition at 10 µM [5]: 11%; ED50 [6]: 57 µmol/kg; pellet consumption, improvement over vehicle ([7]; 0.1 mg/kg, contralateral): 20-30%; pellet consumption, improvement relative to vehicle alone ([7]; 0.5 mg/kg, contralateral, p<0.05): > 60%; potency relative to PRS-211,095 and dexanabinol ([7]; 0.5 mg/kg, session 3 of the staircase): at least 10 times; pellet consumption, improvement over vehicle ([7]; 2.5 mg/kg, contralateral): 20-30%; pellet consumption, improvement over vehicle ([7]; 5.0 mg/kg, contralateral): 20-30%; Mortality Rate(%) ([7]; Table 5, 0.1 mg/kg IV): 25%; No. Dead Animals ([7]; Table 5, 0.1 mg/kg IV): 4; Mortality Rate(%) ([7]; Table 5, 0.5 mg/kg IV): 18.75%; No. Dead Animals ([7]; Table 5, 0.5 mg/kg IV): 3; Mortality Rate(%) ([7]; Table 5, 2.5 mg/kg IV): 30.7%; No. Dead Animals ([7]; Table 5, 2.5 mg/kg IV): 4; Mortality Rate(%) ([7]; Table 5, 5 mg/kg IV): 14%; No. Dead Animals ([7]; Table 5, 5 mg/kg IV): 2

For `CCCCCCC(C)(C)c1cc(O)c2c(c1)OC(C)(C)[C@H]1CC=C(CSc3ncc[nH]3)C[C@H]21` (single isomer, unassigned) [211,092-000], which “reduction of infarct size” value [8] is on record?
Its value is 52%.

What about the inhibition at 10 µM [2] of the same compound?
Its inhibition at 10 µM is 57%.

What about the “NMDA receptor binding / affinity” value [3] of the same compound?
The value was “low affinity”.

And the IC50 [3, 10]?
Its IC50 is > 50000 nM.

What about the inhibition at 10 µM [4] of the same compound?
The inhibition at 10 µM was 22%.

What about the “infarct size (AN/AR, AN/LV)” value [9] of the same compound?
The value was “clear decrease in infarct size”.

And the inhibition at 10 µM [5]?
Its inhibition at 10 µM is 0%.

And the ED50 [6]?
Its ED50 is 28 µmol/kg.
